Test results taken from patent publication US12044651B2, “Sensor device and methods” (SCENTIAN BIO LIMITED, priority 2016, dated 2024).
Values belong to the molecule of their own block, whether it stands above or below them.

Tests used:
BdorOBP2 = details: ref 39; cited from earlier work
Or10a = target: T1, Or10a (Drosophila melanogaster, UniProt Q9VYZ1); test: EIS sensor, Or10a liposomes on gold electrode (Example 1); assay type: binding; details: lowest three concentrations
T1 sequence (Q9VYZ1 1-406): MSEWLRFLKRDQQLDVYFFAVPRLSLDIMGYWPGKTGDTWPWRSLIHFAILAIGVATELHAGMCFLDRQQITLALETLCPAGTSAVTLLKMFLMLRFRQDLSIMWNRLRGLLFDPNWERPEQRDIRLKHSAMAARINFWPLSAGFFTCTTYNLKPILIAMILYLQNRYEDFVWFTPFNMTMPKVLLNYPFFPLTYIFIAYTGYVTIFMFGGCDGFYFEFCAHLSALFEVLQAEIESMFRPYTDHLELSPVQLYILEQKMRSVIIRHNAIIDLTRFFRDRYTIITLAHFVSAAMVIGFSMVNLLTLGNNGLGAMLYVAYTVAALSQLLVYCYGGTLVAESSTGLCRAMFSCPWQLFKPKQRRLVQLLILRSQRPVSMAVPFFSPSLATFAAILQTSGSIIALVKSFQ
Description: (§1) Liposomes were prepared using a phospholipid solution produced by evaporating solutions containing: phosphatidylethanolamine (PE), phosphatidylserine (PS), phosphatidylcholine (PC), and cholesterol (CH) at a molar ratio of 5:3:3:1 in a small glass tube under a stream of N2 gas, then desiccating under vacuum for 1 h. […] To promote the formation of liposomes, 10 freeze/thaw steps were performed by transferring the tube from liquid nitrogen to a 40° C. water bath. Liposomes were then sized by passing the lipid solution 11 times through a 100-nm polycarbonate membrane using an Avestin LiposoFAST extruder unit (Avestin, Germany). Glycerol was added at 10% of the final volume and aliquots at 10 mg/mL were snap frozen in liquid nitrogen and stored at -80° C. Prior to their use, liposomes were defrosted on ice and then destabilized by incubating with 0.2% CHAPS for 15 min at room temperature. Then 200 μg of purified odorant receptor^14 was added to 1 mg of liposomes and rotated at 10 rpm for 1 h at room temperature. […] The Bio-Beads were removed after each incubation period. The OR integrated liposomes were pelleted by centrifugation at 100,000 g for 1 h, and were resuspended in 500 μL of rehydration buffer. Integration of OrXs into liposomes was assessed by density gradient ultracentrifugation (DGU) using Accudenz (Accurate Chemical & Scientific Corporation, USA). […] The sample was then centrifuged at 100,000 g for 4 h at 4° C. Liposomes will float to the top of the gradient after Accudenz DGU due to their low density. 1.3 Electrode Cleaning Gold disk (2 mm) electrodes were cleaned with polishing with Alumina paste for 2 minutes, ultra-sonicated in pure ethanol and then Milli-Q water for 5 minutes each. […] Charge transfer resistance (Rct) of electrodes were calculated by fitting obtained data to a Randles' equivalent circuit [Rs+CPE/(Rct+W)] comprising of a solution resistance (Rs) in series with a constant phase element (CPE) and in parallel with charge transfer resistance (Rct) and Warburg diffusion element. […]

Or22a = target: T2, Or22a (Drosophila melanogaster, UniProt P81909); test: EIS sensor, Or22a liposomes on gold electrode (Example 1); assay type: binding; details: lowest three concentrations
T2 sequence (P81909 1-397): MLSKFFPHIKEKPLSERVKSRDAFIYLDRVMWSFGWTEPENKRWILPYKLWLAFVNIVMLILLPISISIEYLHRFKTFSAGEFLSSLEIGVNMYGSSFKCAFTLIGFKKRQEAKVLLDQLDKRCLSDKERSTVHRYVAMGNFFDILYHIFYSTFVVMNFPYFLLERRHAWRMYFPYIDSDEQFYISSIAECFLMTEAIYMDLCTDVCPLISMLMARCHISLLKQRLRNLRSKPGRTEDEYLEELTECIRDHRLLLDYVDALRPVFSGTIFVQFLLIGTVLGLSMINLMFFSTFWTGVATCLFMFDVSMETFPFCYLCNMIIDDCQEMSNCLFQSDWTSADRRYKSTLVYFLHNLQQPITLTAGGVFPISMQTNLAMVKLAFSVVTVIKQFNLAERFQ
Description: as §1

OR35a = target: T3, OR35a (Drosophila melanogaster, UniProt Q9V3Q2); test: EIS sensor, Or35a liposomes on gold electrode (Example 1); assay type: binding; details: lowest three concentrations
T3 sequence (Q9V3Q2 1-409): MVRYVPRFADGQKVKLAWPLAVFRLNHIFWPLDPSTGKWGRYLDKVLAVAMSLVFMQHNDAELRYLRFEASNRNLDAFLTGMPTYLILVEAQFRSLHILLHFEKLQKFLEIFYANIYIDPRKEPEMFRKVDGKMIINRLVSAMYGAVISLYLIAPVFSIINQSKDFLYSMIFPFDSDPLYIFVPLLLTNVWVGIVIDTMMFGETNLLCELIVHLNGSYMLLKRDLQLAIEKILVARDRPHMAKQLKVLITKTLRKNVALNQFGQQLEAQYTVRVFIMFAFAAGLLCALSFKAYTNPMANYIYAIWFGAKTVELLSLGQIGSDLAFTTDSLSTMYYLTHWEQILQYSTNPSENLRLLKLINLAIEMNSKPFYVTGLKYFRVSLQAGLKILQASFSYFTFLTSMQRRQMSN
Description: as §1

Molecule: O=CCc1ccccc1 [phenylacetaldehyde]
detection limit (BdorOBP2): ~10^−6 M

Molecule: CCCCOC(=O)c1ccccc1C(=O)OCCCC [dibutyl phthalate]
detection limit (BdorOBP2): ~10^−6 M

Molecule: CC(=O)OCCC(C)C [isoamyl acetate]
detection limit (BdorOBP2): ~10^−6 M

Molecule: CC(=O)/C=C/C1=C(C)CCCC1(C)C [β-ionone]
detection limit (BdorOBP2): ~10^−6 M

Molecule: C=CCc1ccc(OC)c(OC)c1 [4-allylveratrole]
detection limit (BdorOBP2): ~10^−6 M

Molecule: COC(=O)c1ccc(O)cc1 [methy-p-hydroxyl benzoate]
detection limit (BdorOBP2): ~10^−6 M

Sensitivity of the sensor (slope of the linear range) (Or10a): 0.313 units/[log(conc/M)]
B1: Or10a: insect odorant receptor OrX in liposomes attached to the gold electrode of the EIS sensor (protein, UniProt Q9VYZ1 1-406, looked up)
Odorant receptor 10a: T1 sequence (Q9VYZ1 1-406)
modifications: in liposomes
notes: insect odorant receptor OrX in liposomes attached to the gold electrode of the EIS sensor

Sensitivity of the sensor (slope of the linear range) (Or22a): 0.156 units/[log(conc/M)]
B2: Or22a: insect odorant receptor OrX in liposomes attached to the gold electrode of the EIS sensor (protein, UniProt P81909 1-397, looked up)
Odorant receptor 22a: T2 sequence (P81909 1-397)
modifications: in liposomes
notes: as for B1

Sensitivity of the sensor (slope of the linear range) (OR35a): 0.116 units/[log(conc/M)]
B3: Or35a: insect odorant receptor OrX in liposomes attached to the gold electrode of the EIS sensor (protein, UniProt Q9V3Q2 1-409, looked up)
Odorant receptor 35a: T3 sequence (Q9V3Q2 1-409)
modifications: in liposomes
notes: as for B1
